Measured values from patent US20250221410A1, “SUBSTITUTED 2-C-AZINES AND SALTS THEREOF, AND USE THEREOF AS HERBICIDAL ACTIVE SUBSTANCES” (BAYER AKTIENGESELLSCHAFT, priority 2022, published 2025).

Experiments:
Type in all cases: in vivo
[1] = tested on: AMARE: Amaranthus retroflexus; assay: Post-emergence herbicidal efficacy at 80 g/ha, AMARE; settings: visual rating about 3 weeks after treatment vs untreated controls
Experimental: (§1) Seeds of monocotyledonous and dicotyledonous weeds and crop plants were placed in sandy loam in plastic or organic planting pots, covered with soil and cultivated in a greenhouse under controlled growth conditions. 2 to 3 weeks after sowing, the test plants were treated at the one-leaf stage. The compounds of the invention, formulated in the form of wettable powders (WP) or as emulsion concentrates (EC), were then sprayed onto the green parts of the plants as aqueous suspension or emulsion with addition of 0.5% additive at a water application rate of 600 l/ha (converted). After the test plants had been kept in the greenhouse under optimum growth conditions for about 3 weeks, the activity of the preparations was rated visually in comparison to untreated controls. For example, 100% activity=the plants have died, 0% activity=like control plants. Tables B1 to B10 below show the effects of selected compounds of the general formula (I) according to Table 1 on various harmful plants and an application rate corresponding to 80 g/ha, which were obtained by the experimental procedure mentioned above.

[2] = tested on: AMARE: Amaranthus retroflexus; assay: Pre-emergence herbicide efficacy at 80 g/ha, AMARE; settings: scored visually after about 3 weeks
From the text: (§2) Seeds of monocotyledonous and dicotyledonous weed plants and crop plants were placed in plastic or organic planting pots and covered with soil. The compounds of the invention, formulated in the form of wettable powders (WP) or as emulsion concentrates (EC), were then applied to the surface of the covering soil as aqueous suspension or emulsion with addition of 0.5% additive at a water application rate equivalent to 600 l/ha. After the treatment, the pots were placed in a greenhouse and kept under good growth conditions for the test plants. After about 3 weeks, the efficacy of the preparations was scored visually in comparison with untreated controls as percentages. For example, 100% activity=the plants have died, 0% activity=like control plants. Tables D1 to D12 below show the effects of selected compounds of the general formula (I) according to Table 1 on various harmful plants and an application rate corresponding to 80 g/ha, which were obtained by the experimental procedure mentioned above.

VERPE: Veronica persica [3] = assay: Post-emergence herbicidal efficacy at 80 g/ha, VERPE; settings: visual rating about 3 weeks after treatment vs untreated controls
Experimental: as §1

POAAN: Poa annua [4] = assay: Pre-emergence herbicide efficacy at 1280 g/ha, POAAN; settings: visual scoring after about 3 weeks vs untreated controls
Outline: (§3)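 Seeds sown in sandy loam in pots and covered; compounds as WP or EC applied to covering soil surface as aqueous suspension/emulsion with 0.5% additive at 600 L/ha water. Greenhouse growth ~3 weeks, then visual % efficacy vs untreated controls (100% = plants dead, 0% = like control).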

[5] = tested on: AMARE: Amaranthus retroflexus; assay: Pre-emergence herbicide efficacy at 1280 g/ha, AMARE; settings: visual scoring after about 3 weeks vs untreated controls
Outline: as §3

SETVI: Setaria viridis [6] = assay: Post-emergence herbicidal efficacy at 1280 g/ha, SETVI; settings: visual rating about 3 weeks after treatment vs untreated controls
Outline: (§4)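 Read-out is visual percent activity relative to untreated controls (100% = plants died, 0% = no effect), scored about 3 weeks after treatment. Application was post-emergence at the one-leaf stage in the greenhouse, as WP or EC in water with 0.5% additive at 600 L/ha.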

KCHSC: Kochia scoparia [7] = assay: Post-emergence herbicidal efficacy at 1280 g/ha, KCHSC; settings: visual rating about 3 weeks after treatment vs untreated controls
Outline: as §4

VERPE: Veronica persica [8] = assay: Pre-emergence herbicide efficacy at 1280 g/ha, VERPE; settings: visual scoring vs untreated controls
Outline: as §3

[9] = tested on: ABUTH: Abutilon theophrasti; assay: Post-emergence herbicidal efficacy at 1280 g/ha, ABUTH; settings: rated visually after about 3 weeks vs untreated controls, 100% = plants have died, 0% = like control plants
Outline: as §4

[10] = tested on: MATIN: Matricaria inodora; assay: Pre-emergence herbicide efficacy at 1280 g/ha, MATIN; settings: visual scoring after about 3 weeks vs untreated controls
From the text: (§5) Seeds of mono- and dicotyledonous weed plants were placed in plastic pots in sandy loam soil (doubly sown with one species each of mono- or dicotyledonous weed plants per pot) and covered with soil. The compounds of the invention, formulated in the form of wettable powders (WP) or as emulsion concentrates (EC), were then applied to the surface of the covering soil as aqueous suspension or emulsion with addition of 0.5% additive at a water application rate of 600 litres per hectare (converted). After the treatment, the pots were placed in a greenhouse and kept under good growth conditions for the test plants. After about 3 weeks, the efficacy of the preparations was scored visually in comparison with untreated controls as percentages. For example, 100% activity=the plants have died, 0% activity=like control plants. Tables C1 to C12 below show the effects of selected compounds of the general formula (I) according to Table 1 on various harmful plants and at an application rate corresponding to 1280 g/ha, which were obtained by the trial procedure specified above.

STEME: Stellaria media = assay: Pre-emergence herbicide efficacy at 1280 g/ha, STEME; settings: visual scoring vs untreated controls
Outline: as §3

LOLRI: Lolium rigidum = assay: Pre-emergence herbicide efficacy at 1280 g/ha, LOLRI; settings: visual scoring after about 3 weeks vs untreated controls
From the text: as §5

[11] = tested on: ABUTH: Abutilon theophrasti; assay: Pre-emergence herbicide efficacy at 1280 g/ha, ABUTH; settings: visual scoring after about 3 weeks vs untreated controls
Outline: as §3

[12] = tested on: ECHCG: Echinochloa crus-galli; assay: Pre-emergence herbicide efficacy at 1280 g/ha, ECHCG; settings: visual scoring after about 3 weeks vs untreated controls
Outline: as §3

[13] = tested on: DIGSA: Digitaria sanguinalis; assay: Post-emergence herbicidal efficacy at 1280 g/ha, DIGSA; settings: rated visually after about 3 weeks vs untreated controls, 100% = plants have died, 0% = like control plants
Experimental: Seeds of mono- and dicotyledonous weed plants were placed in plastic pots in sandy loam soil (doubly sown with in each case one species of mono- or dicotyledonous weed plants per pot), covered with soil and cultivated in a greenhouse under controlled growth conditions. 2 to 3 weeks after sowing, the test plants were treated at the one-leaf stage. The compounds of the invention, formulated in the form of wettable powders (WP) or as emulsion concentrates (EC), were applied to the green parts of the plants as aqueous suspension or emulsion with addition of 0.5% additive at a water application rate equivalent to 600 litres per hectare. After the test plants had been kept in the greenhouse under optimum growth conditions for about 3 weeks, the activity of the preparations was rated visually in comparison to untreated controls. For example, 100% activity=the plants have died, 0% activity=like control plants. Tables A1 to A12 below show the effects of selected compounds of the general formula (I) according to Table 1 on various harmful plants and at an application rate corresponding to 1280 g/ha, which were obtained by the trial procedure specified above.

[14] = tested on: AMARE: Amaranthus retroflexus; assay: Post-emergence herbicidal efficacy at 1280 g/ha, AMARE; settings: rated visually after about 3 weeks vs untreated controls, 100% = plants have died, 0% = like control plants
Outline: as §4

VERPE: Veronica persica [15] = assay: Post-emergence herbicidal efficacy at 1280 g/ha, VERPE; settings: visual rating about 3 weeks after treatment vs untreated controls
Outline: as §4

POAAN: Poa annua [16] = assay: Post-emergence herbicidal efficacy at 1280 g/ha, POAAN; settings: visual rating about 3 weeks after treatment vs untreated controls
Outline: as §4

SETVI: Setaria viridis [17] = assay: Pre-emergence herbicide efficacy at 1280 g/ha, SETVI; settings: visual scoring vs untreated controls
Outline: as §3

[18] = tested on: DIGSA: Digitaria sanguinalis; assay: Pre-emergence herbicide efficacy at 1280 g/ha, DIGSA; settings: visual scoring after about 3 weeks vs untreated controls
Outline: as §3

KCHSC: Kochia scoparia [19] = assay: Pre-emergence herbicide efficacy at 1280 g/ha, KCHSC; settings: visual scoring after about 3 weeks vs untreated controls
Outline: as §3

[20] = tested on: ABUTH: Abutilon theophrasti; assay: Pre-emergence herbicide efficacy at 80 g/ha, ABUTH; settings: scored visually after about 3 weeks
From the text: as §2

Compound	Post-emergence efficacy against AMARE [1] [%]	Pre-emergence efficacy against AMARE in % [2] [%]	Pre-emergence efficacy against POAAN (POAAN: Poa annua [4]) [%]	Pre-emergence efficacy against AMARE [5] [%]	Post-emergence efficacy against KCHSC (KCHSC: Kochia scoparia [7]) [%]	Pre-emergence efficacy against VERPE in % (VERPE: Veronica persica [8]) [%]	Pre-emergence efficacy against MATIN [10] [%]	Pre-emergence efficacy against STEME in % (STEME: Stellaria media) [%]	Pre-emergence efficacy against ABUTH [11] [%]	Pre-emergence efficacy against ECHCG [12] [%]	Post-emergence efficacy at 1280 g/ha against AMARE in % [14] [%]	Post-emergence efficacy against VERPE (VERPE: Veronica persica [15]) [%]	Pre-emergence efficacy against SETVI in % (SETVI: Setaria viridis [17]) [%]	Pre-emergence efficacy against DIGSA [18] [%]	further results
O=S(=O)(CCCC(F)(F)F)Oc1c(F)cccc1Cc1ncc(Cl)cn1 [Example 1-14]	95	90	–	–	–	–	–	–	–	–	–	–	–	–	Post-emergence efficacy against VERPE (VERPE: Veronica persica [3]): 95%
Fc1ccc(Oc2ccccc2Cc2ncc(Cl)cn2)cc1 [Example 1-29]	–	–	100	100	90	100	90	90	100	100	90	100	100	100	Post-emergence efficacy against SETVI (SETVI: Setaria viridis [6]): 90%; Post-emergence efficacy at 1280 g/ha against ABUTH in % [9]: 90%; Pre-emergence efficacy against LOLRI (LOLRI: Lolium rigidum): 100%; Post-emergence efficacy at 1280 g/ha against DIGSA in % [13]: 90%; Post-emergence efficacy against POAAN (POAAN: Poa annua [16]): 90%
Fc1cnc(Oc2cccc(F)c2Cc2ncc(Cl)cn2)nc1 [Example 1-52]	80	100	100	100	90	90	100	100	90	90	100	90	100	100	Pre-emergence efficacy against KCHSC (KCHSC: Kochia scoparia [19]): 100%; Pre-emergence efficacy against ABUTH in % [20]: 90%
